Laboratory results published in ChEMBL document CHEMBL1201862, “PubChem BioAssay data set” (2004).
Activity calls are given as the source filed them.

What was measured:
[1] = target: T1, Protein skinhead-1 (Caenorhabditis elegans, UniProt P34707); format: functional
T1 sequence (P34707 whole entry): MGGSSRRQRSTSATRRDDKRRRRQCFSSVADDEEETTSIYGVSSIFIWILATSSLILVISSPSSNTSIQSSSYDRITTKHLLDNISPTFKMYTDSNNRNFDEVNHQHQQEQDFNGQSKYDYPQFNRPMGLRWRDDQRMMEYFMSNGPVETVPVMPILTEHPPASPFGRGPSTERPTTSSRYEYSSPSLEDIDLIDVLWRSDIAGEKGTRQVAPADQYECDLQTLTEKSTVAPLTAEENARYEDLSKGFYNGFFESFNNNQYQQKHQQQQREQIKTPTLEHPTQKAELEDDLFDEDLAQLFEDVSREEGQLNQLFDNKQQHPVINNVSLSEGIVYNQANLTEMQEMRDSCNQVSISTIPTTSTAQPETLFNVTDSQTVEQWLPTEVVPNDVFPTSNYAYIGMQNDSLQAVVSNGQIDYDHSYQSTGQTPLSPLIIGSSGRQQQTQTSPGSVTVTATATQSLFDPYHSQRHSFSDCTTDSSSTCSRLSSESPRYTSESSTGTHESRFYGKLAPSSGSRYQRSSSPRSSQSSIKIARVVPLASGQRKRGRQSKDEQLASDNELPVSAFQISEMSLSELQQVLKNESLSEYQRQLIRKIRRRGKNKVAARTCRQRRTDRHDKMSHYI

[2] = target: T2, Rac GTPase-activating protein 1 (Homo sapiens, UniProt Q9H0H5); assay: blockers of MgcRacGAP-driven Rac1 GTP hydrolysis – biochemical, ADP Hunter fluorescence, primary and confirmatory, confirmation (AID 624330); format: functional
T2 sequence (Q9H0H5 whole entry): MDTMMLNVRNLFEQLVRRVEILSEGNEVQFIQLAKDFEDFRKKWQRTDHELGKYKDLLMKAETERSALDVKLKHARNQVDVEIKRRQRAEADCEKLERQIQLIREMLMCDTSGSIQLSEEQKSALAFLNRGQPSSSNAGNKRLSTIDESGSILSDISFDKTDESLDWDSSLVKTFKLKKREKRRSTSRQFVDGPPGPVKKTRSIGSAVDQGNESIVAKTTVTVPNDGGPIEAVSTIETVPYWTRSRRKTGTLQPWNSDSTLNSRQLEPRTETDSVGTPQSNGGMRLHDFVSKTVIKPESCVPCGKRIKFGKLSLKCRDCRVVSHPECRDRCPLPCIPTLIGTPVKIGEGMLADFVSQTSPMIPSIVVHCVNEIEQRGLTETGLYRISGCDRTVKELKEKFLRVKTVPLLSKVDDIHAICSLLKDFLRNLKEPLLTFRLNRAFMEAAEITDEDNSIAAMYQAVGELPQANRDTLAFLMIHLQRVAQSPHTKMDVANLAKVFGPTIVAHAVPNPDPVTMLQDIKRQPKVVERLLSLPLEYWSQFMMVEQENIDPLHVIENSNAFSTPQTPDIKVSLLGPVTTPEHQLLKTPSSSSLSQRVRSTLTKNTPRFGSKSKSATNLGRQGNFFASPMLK

[3] = target: Cytochrome P450 2C19 (Homo sapiens, UniProt P33261); assay: Cytochrome panel assay with activity outcomes. Panel member name: p450-cyp2c19 Compounds with AC50 equal or less than 10 uM are considered active; format: functional
[4] = target: Cytochrome P450 3A4 (Homo sapiens, UniProt P08684);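 further: CYP3A4 tested as one member of a cytochrome P450 panel screen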
[5] = Luminescence Cell-Based Dose Retest to Confirm Inhibitors of Cancer Stem Cells. [Related pubchem assays (depositor defined):AID2717, AID2721]; format: functional; conditions: Homo sapiens
[6] = Trypanosoma cruzi growth suppression in host cells – NIH3T3 host cells, beta-gal luminescence, confirmation (AID 2044); format: functional, cell-based;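 further: intracellular parasites grown in NIH/3T3 mouse fibroblasts as host cells; luminescent beta-galactosidase reporter signal from transgenic T. cruzi replicating inside host cells; inhibitors lower the luminescence signal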
[7] = NIH3T3 cell viability loss – ATP luminescence, mouse fibroblasts, counter-screen, dose response (AID 2010); format: functional, cell-based;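 further: cells exposed to compound for about 90 hours before reading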
[8] = target: T3, Protein RecA (Mycobacterium tuberculosis, UniProt P9WHJ3); assay: Fluorescence Cell-Free Homogeneous Dose Retest to Identify Inhibitors of RecA-Intein Splicing Activity. [Related pubchem assays (depositor defined):AID2097, AID2223, AID489010, AID492950]; format: functional
T3 sequence (P9WHJ3 whole entry): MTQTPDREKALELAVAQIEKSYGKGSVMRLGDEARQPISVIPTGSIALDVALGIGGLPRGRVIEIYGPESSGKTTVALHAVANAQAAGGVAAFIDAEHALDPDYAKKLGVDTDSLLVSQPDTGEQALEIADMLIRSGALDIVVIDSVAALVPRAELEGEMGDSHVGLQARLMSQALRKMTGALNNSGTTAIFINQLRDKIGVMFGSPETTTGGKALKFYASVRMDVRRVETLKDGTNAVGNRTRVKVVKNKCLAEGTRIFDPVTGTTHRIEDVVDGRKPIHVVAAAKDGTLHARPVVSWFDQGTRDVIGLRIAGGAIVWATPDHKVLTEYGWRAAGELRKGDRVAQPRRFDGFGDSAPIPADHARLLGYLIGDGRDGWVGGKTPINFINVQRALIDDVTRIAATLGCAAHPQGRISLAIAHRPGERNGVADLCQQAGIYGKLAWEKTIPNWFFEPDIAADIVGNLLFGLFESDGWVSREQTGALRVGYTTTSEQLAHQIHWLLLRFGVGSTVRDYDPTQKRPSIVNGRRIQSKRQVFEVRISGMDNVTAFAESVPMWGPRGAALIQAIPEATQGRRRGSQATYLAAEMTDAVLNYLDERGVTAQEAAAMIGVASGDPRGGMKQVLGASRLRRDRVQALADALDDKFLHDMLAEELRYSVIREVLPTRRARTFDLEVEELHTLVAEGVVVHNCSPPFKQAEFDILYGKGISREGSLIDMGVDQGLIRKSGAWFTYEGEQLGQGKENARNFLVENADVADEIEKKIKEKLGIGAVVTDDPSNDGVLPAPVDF

[9] = system: Streptococcus; assay: GAS UMAA2166 growth inhibition – luminescence, BacTiterGlo, counter-screen for streptokinase expression inhibitor project, dose response (AID 1915); format: functional, organism-based;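 further: potency for reduction of bacterial viability or growth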
[10] = system: Streptococcus sp. 'group A'; assay: Streptococcus pyogenes SK(-)GAS viability under kanamycin – luminescence, BacTiterGlo, confirmation, counter-screen for streptokinase expression inhibitor project, dose response (AID 1900); format: functional, organism-based

Sequence of Cytochrome P450 2C19 (P33261 whole entry): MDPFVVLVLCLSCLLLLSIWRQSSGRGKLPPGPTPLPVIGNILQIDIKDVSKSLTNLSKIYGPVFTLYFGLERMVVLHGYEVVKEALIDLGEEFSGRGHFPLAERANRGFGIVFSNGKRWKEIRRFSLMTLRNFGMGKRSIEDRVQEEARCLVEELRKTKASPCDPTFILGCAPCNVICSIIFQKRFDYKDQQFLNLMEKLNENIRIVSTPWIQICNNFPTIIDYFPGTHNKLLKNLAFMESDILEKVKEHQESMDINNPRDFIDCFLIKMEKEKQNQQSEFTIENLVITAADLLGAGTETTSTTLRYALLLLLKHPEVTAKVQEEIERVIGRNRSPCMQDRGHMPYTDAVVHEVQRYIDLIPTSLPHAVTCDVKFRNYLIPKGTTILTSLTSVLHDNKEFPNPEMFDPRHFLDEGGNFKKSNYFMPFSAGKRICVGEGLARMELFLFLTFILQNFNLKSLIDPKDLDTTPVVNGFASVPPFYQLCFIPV
Sequence of Cytochrome P450 3A4 (P08684 whole entry): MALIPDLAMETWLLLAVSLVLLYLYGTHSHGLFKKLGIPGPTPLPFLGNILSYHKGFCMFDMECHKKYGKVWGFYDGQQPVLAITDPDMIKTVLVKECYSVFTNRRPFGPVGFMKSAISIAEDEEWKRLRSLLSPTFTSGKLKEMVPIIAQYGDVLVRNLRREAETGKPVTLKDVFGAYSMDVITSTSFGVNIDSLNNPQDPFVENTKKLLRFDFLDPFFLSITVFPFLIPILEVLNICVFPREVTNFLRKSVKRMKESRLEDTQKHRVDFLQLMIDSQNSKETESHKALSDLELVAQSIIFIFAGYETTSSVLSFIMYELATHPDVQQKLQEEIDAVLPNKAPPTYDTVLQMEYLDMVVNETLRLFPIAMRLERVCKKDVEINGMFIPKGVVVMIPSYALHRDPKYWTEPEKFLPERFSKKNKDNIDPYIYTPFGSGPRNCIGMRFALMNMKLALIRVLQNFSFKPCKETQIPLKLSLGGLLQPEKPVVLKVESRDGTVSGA

COCCCn1c(=O)c2ccccc2n(Cc2cccc(C)c2)c1=O
IC50 [1]: > 100 µM (inactive)

N#CC1=C(Nc2ccccc2Cl)SC(c2ccccc2O)NC1=O (stereo not given)
IC50 [2]: 129 µM (active)

COCCCN=C(S)NC1CC2CCCC(C1)N2Cc1cccs1 (stereo not given)
AC50 ([3]; read-out: AC50): 1.26 µM (inconclusive)

COc1ccccc1CN1CCCC2(CCN(C(=O)c3csnn3)CC2)C1
AC50 [4]: 15.8 µM (inconclusive)

Cc1sc(-n2c(C)cc(/C=C3\SC(=S)NC3=O)c2C)c(C#N)c1C
AC50 [5]: 2.5 µM (active)

C=CCN1C(=O)C(CC(=O)Nc2ccc(OCCC)cc2)N(CCCN2CCN(Cc3ccccc3)CC2)C1=S (stereo not given)
EC50 [6]: 3.01 µM (active) | EC50 [7]: > 60 µM (not active)

O=C(Nc1cc(-c2ccccc2)n[nH]1)c1ccccc1
IC50 [1]: > 100 µM (inactive)

O=C(C1=C(O)C(=O)N(c2cccc(Cl)c2)C1c1ccccc1[N+](=O)[O-])c1ccccc1 (stereo not given)
AC50 [4]: 12.6 µM (inconclusive)

O=C(NC1CONC1=O)OCC(Cl)(Cl)Cl (stereo not given)
AC50 [5]: > 195 µM (inactive)

COc1ccccc1N=C(S)NNC(=O)c1c(Cl)c(C)nn1C
AC50 [3]: inconclusive

O=C(c1cc(-c2ccncc2)nc2ccc(Br)cc12)N1CCN(Cc2ccc3c(c2)OCO3)CC1
EC50 [6]: 0.384 µM (active) | EC50 [7]: 54.9 µM (active)

O=C(Nc1ccccc1)c1ccc(N2CCN(c3ccccc3)CC2)c(S(=O)(=O)N2CCOCC2)c1
EC50 [6]: 2.04 µM (active) | EC50 [7]: > 60 µM (not active)

COc1cc(CNC(C)c2ccccc2)cc(Br)c1OCc1ccccc1 (stereo not given)
AC50 [5]: 5.92 µM (active)

CCOc1ccc2c(c1)-c1c(ssc1=S)C(C)(C)N2
EC50 [8]: 3.17 µM (active)

COc1ccc(CNc2ncc(-c3ccccc3)n2C)c(OC)c1OC
IC50 [2]: 65.7 µM (active)

Cc1cnc(CNc2ccnc(-c3ccccc3C)n2)cn1
AC50 [4]: 20 µM (inconclusive)

COc1cc(N=Nc2ccc(C)cc2S(N)(=O)=O)c(C)cc1N
IC50 [2]: 76.2 µM (active)

Sc1nnc2sc3ccccc3n12
IC50 [2]: 35.8 µM (active)

COc1ccc(NC2CCCN(C(=O)CCc3scnc3C)C2)cc1 (stereo not given)
IC50 [2]: 96.1 µM (active)

CSc1ccccc1C(=O)NCCOc1cccc(C)c1
IC50 [1]: > 100 µM (inactive)

O=C(CN(Cc1ccccc1Cl)C(=O)c1ccc(CN2CCOCC2)o1)NCC1CCCO1 (stereo not given)
AC50 ([3]; read-out: AC50): 10 µM (inconclusive)

CCn1cc(C(=O)O)c(=O)c2cc(F)c(N3CCN(S(=O)(=O)c4ccc(NC(C)=O)cc4)CC3)cc21
EC50 [9]: 7.08 µM (active) | EC50 [10]: 5.05 µM (active)

O=C(O)c1ccccc1C(=O)Nc1ccc(Nc2ccccc2)cc1
IC50 [2]: 55.5 µM (active)

Cc1ccc(/C=N/Nc2cc(C)nc(NCc3ccccc3)n2)cc1
AC50 [5]: 6.45 µM (active)

Oc1ccccc1/C=N/NP(=S)(c1ccccc1)c1ccccc1
AC50 [5]: 2.69 µM (active)

O/N=C/c1ccnc(SCc2ccc(Cl)cc2)n1
AC50 [5]: 3.58 µM (active)
